# Patent US10596172B2 (Celgene CAR LLC, priority 2008, dated 2020)
# Read-outs that look alike come from different tables or passages of the source.
# Experiments:
# EGFR-WT = EGFR-WT (Homo sapiens (Human), UniProt P00533); experiment: Omnia assay for potency assessment against EGFR (WT); format: biochemical; conditions: wild-type EGFR; read-out: EGFR Wild Type Inhibition
# BTK [1] = target: T1, BTK (Homo sapiens (Human), UniProt Q06187); experiment: Omnia assay for potency assessment against BTK; format: biochemical; conditions: [BTK]=5 nm; read-out: BTK Inhibition
# Description: Omnia Assay Protocol for Potency Assessment Against BTK
# The modified BTK-optimized reagent conditions for the above protocol are:
# [BTK]=5 nm, [ATP]=40 mM, [Y5-Sox]=10 mM (ATP KMapp˜36 mM).
# JAK3 = JAK3 (Homo sapiens (Human), UniProt P52333); experiment: Omnia assay for potency assessment against the active form of JAK3; format: biochemical; conditions: read-out: JAK3 Inhibition
# Description: Briefly, 10× stocks of EGFR-WT (PV3872) from Invitrogen and EGFR-T790M/L858R (40350) from BPS Bioscience, San Diego, Calif., 1.13×ATP (AS001A) and appropriate Tyr-Sox conjugated peptide substrates (KCZ1001) were prepared in 1× kinase reaction buffer consisting of 20 mM Tris, pH 7.5, 5 mM MgCl2, 1 mM EGTA, 5 mM β-glycerophosphate, 5% glycerol (10× stock, KB002A) and 0.2 mM DTT (DS001A).
# The Omnia Assay Protocol for potency assessment against JAK3 was performed in a substantially similar manner as that described in Example 251 above except that the modified JAK3-optimized reagent conditions were:
# [JAK3]=5 nM, [ATP]=5 μM, [Y12-Sox]=5 μM (ATP KMapp˜5 μM).
# [2] = tested on: B cell lymphoma cell lines; experiment: B cell lymphoma proliferation assay; format: cell-based; conditions: Homo sapiens
# BTK [3] = target: T1, BTK; experiment: Washout experiment with Ramos cells; format: cell-based; conditions: 100 nM compound 1 hour, then washout
# Description: Ramos cells were serum starved for one hour in RPMI media +1% glutamine at 37° C. After starvation, Ramos cells were treated with 100 nM compound diluted in serum free RPMI media for 1 hour. After compound treatment, the media was removed and cells were washed with compound-free media. Subsequently, Ramos cells were washed every 2 hours and resuspended in fresh compound-free media. Cells were collected at specified timepoints, treated with 1 ug anti-human IgM (Southern Biotech cat #2022-01) for 10 minutes on ice to induce BCR signaling and then washed in PBS. Ramos cells were then lysed in Cell Extraction Buffer (Invitrogen FNN0011) supplemented with Roche complete protease inhibitor tablets (Roche 11697498001) and phosphatase inhibitors (Roche 04 906 837 001) and 18 ug total protein lysate was loaded in each lane. Inhibition of BTK kinase activity was assayed by measuring its substrate (PLCγ2) phosphorylation by western blot with phospho-specific antibodies from Cell Signaling Technologies cat #3871. The results of this experiment with compounds I-2, I-4 and I-7 are depicted in FIGS. 1, 2 and 3.
# [4] = DOHH-2, DOHH2 B cell lymphoma cell line, read-out: EC50 (μM) DOHH2
# [5] = WSUDLCL2, WSU-DLCL2 B cell lymphoma cell line, read-out: EC50 (μM) WSU-DLCL2
# T1 sequence (Q06187 whole entry): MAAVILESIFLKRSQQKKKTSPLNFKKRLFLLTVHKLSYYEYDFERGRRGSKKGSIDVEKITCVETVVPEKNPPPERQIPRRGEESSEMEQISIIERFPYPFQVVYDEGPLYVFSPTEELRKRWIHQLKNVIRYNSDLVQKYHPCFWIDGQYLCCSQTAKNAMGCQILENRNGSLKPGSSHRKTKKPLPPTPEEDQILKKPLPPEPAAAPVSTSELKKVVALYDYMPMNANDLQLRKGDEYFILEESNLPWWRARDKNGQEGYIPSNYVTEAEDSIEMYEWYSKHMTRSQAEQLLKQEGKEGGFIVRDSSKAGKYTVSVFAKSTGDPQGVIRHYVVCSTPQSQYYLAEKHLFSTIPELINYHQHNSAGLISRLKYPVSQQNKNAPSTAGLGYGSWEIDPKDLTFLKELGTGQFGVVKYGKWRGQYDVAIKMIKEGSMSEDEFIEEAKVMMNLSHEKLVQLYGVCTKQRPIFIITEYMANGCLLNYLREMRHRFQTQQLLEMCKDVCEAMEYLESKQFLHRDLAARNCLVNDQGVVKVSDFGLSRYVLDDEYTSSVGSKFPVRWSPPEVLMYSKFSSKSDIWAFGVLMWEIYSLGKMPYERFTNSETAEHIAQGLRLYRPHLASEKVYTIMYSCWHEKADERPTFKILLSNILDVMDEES
# Chain of JAK3 (P52333 whole entry): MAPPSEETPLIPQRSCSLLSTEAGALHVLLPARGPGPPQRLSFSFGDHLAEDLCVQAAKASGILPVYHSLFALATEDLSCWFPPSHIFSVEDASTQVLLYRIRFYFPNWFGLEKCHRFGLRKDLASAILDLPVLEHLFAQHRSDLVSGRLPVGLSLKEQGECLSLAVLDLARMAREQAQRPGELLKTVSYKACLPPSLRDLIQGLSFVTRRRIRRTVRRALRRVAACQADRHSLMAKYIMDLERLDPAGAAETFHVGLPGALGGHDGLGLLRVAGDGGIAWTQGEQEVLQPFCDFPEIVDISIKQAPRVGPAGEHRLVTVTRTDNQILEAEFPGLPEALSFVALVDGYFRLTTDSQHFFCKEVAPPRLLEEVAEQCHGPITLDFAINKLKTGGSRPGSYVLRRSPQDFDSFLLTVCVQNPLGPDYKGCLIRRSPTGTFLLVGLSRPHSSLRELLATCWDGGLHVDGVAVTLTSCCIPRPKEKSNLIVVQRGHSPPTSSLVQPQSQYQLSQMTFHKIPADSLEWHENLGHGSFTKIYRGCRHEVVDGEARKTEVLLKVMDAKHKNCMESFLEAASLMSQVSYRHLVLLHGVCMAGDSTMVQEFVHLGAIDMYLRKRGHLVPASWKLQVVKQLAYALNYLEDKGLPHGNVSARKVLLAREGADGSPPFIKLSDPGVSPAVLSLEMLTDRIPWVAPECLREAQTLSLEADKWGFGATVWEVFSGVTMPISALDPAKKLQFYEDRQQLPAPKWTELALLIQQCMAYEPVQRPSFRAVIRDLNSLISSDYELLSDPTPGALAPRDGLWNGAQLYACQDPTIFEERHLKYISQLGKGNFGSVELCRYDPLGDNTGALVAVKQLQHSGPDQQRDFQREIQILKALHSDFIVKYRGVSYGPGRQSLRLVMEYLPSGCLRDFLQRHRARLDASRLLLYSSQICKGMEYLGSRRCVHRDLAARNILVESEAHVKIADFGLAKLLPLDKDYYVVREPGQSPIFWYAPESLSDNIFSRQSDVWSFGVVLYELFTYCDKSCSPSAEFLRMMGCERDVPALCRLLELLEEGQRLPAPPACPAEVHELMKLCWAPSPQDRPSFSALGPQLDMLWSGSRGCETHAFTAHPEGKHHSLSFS
Molecule,IC50 (EGFR-WT) [nM],IC50 (BTK [1]) [nM],IC50 (JAK3) [nM],"EC50 [2, 4] [µM]","EC50 [2, 5] [µM]",BTK Inhibition Type (BTK [3])
4-(4-(4-(3-acrylamidophenylamino)-5-fluoropyrimidin-2-ylamino)phenoxy)pyridine [Compound I-346],100 to 1000,< 10,,,,
"C=CC(=O)Nc1cccc(Nc2nc(Nc3ccccc3)ncc2F)c1 [Compound I-28, N-(3-(5-fluoro-2-(phenylamino)pyrimidin-4-ylamino)phenyl)acrylamide]",,,< 10,1 to 10,1 to 10,irreversible
"C=CC(=O)Nc1ccc(Nc2nc(Nc3ccccc3)ncc2C)cc1 [Compound I-39, N-(4-(5-methyl-2-(phenylamino)pyrimidin-4-ylamino)phenyl) acrylamide]",,,< 10,1 to 10,1 to 10,
"C=CC(=O)N1CCc2cc(Nc3nc(Nc4cccc(S(N)(=O)=O)c4)ncc3C)ccc2C1 [Compound I-40, 3-(4-(2-acryloyl-1,2,3,4-tetrahydroisoquinolin-6-ylamino)-5-methylpyrimidin-2-ylamino)benzenesulfonamide]",,,< 10,0.1 to 1,1 to 10,
"C=CC(=O)Nc1cccc(Oc2nc(Nc3cc(OC)c(OC)c(OC)c3)ncc2F)c1 [Compound I-148, N-(3-(5-fluoro-2(3,4,5-trimethoxyphenylamino)pyrimidin-4-yloxy)phenyl)acrylamide]",1000 to 10000,1000 to 10000,,,,
"C=CC(=O)N1CCOc2ccc(Nc3nc(Nc4ccc(OC)nc4)ncc3C(C)=O)cc21 [Compound I-170, 1-{6-[5-Acetyl-2-(6-methoxy-pyridin-3-ylamino)-pyrimidin-4-ylamino]-2,3-dihydro-benzo[1,4]oxazin-4-yl}-propenone]",10 to 100,,,,,
"C=CC(=O)N1CCC[C@H](Nc2nc(Nc3ccc(OC)nc3)ncc2F)C1 [Compound I-197, (S)-1-(3-(5-fluoro-2-(6-methoxypyridin-3-ylamino)pyrimidin-4-ylamino)piperidin-1-yl)prop-2-en-1-one]",100 to 1000,100 to 1000,,,,
"C=CC(=O)Nc1cccc(Oc2nc(Nc3ccccc3)ncc2F)c1 [Compound I-228, N-(3-(5-fluoro-2-(phenylamino)pyrimidin-4-yloxy)phenyl)acrylamide]",,,,> 10,> 10,irreversible
"C=CC(=O)Nc1cccc(Nc2nc(Nc3ccccc3)ncc2C(N)=O)c1 [Compound I-230, 4-(3-acrylamidophenylamino)-2-(phenylamino)pyrimidine-5-carboxamide]",,,,1 to 10,1 to 10,irreversible
"C=CC(=O)Nc1cccc(Nc2nc(Nc3ccccc3)ncc2C(F)(F)F)c1 [Compound I-245, N-(3-(5-trifluoromethyl-2-(phenylamino)pyrimidin-4-ylamino)phenyl)acrylamide]",,,< 10,1 to 10,> 10,
"C=CC(=O)Nc1cccc(Nc2nc(Nc3ccc(OCCOC)c(OCCOC)c3)ncc2F)c1 [Compound I-277, N-(3-(2-(3,4-bis(2-methoxyethoxy)phenylamino)-5-fluoropyrimidin-4-ylamino)phenyl)acrylamide]",10 to 100,< 10,,,,
"C=CC(=O)Nc1cccc(Nc2ncc(F)c(Nc3ccc(O[C@H]4CCOC4)cc3)n2)c1 [Compound I-338, (S)—N-(3-(5-fluoro-4-(4-(tetrahydrofuran-3-yloxy)phenylamino)pyrimidin-2-ylamino)phenyl)acrylamide]",10 to 100,,,,,
"Cc1cccc(Nc2nc(Nc3cccc(NC(=O)/C=C/CN(C)C)c3)ncc2C)c1 [Compound I-360, (E)-4-(dimethylamino)-N-(3-(5-methyl-4-(m-tolylamino)pyrimidin-2-ylamino)phenyl)but-2-enamide]",< 10,< 10,< 10,,,
"C=CC(=O)Nc1cccc(Nc2nc(Nc3ccc(OCCOCCNC(=O)CCCC(=O)NCCCOCCOCCOCCCNC(=O)CCCC[C@@H]4SC[C@@H]5NC(=O)N[C@@H]54)cc3)ncc2F)c1 [Compound I-363, N1-(2-(2-(4-(4-(3-acrylamidophenylamino)-5-fluoropyrimidin-2-ylamino)phenoxy)ethoxy)ethyl)-N5-(15-oxo-19-((3aS,4S,6aR)-2-oxohexahydro-1H-thieno[3,4-d]imidazol-4-yl)-4,7,10-trioxa-14-azanonadecyl)glutaramide]",< 10,< 10,,,,
"C=CC(=O)Nc1cccc(Nc2nc(Nc3ccc(Cl)c(O[C@@H](C)COC(=O)[C@@H](N)C(C)C)c3)ncc2F)c1 [Compound I-369, (S)-((S)-2-(5-(4-(3-acrylamidophenylamino)-5-fluoropyrimidin-2-ylamino)-2-chlorophenoxy)propyl)-2-amino-3-methylbutanoate]",100 to 1000,< 10,,,,
"C=CC(=O)Nc1cccc(Nc2nc(Nc3ccc(OCCOCCNC(=O)OC(C)(C)C)cc3)ncc2F)c1 [Compound I-370, tert-butyl 2-(2-(4-(4-(3-acrylamidophenylamino)-5-fluoropyrimidin-2-ylamino)phenoxy)ethoxy)ethylcarbamate]",< 10,< 10,,,,
"C=CC(=O)Nc1cccc(Nc2nc(Nc3ccc(OCCOCCN=[N+]=[N-])cc3)ncc2F)c1 [Compound I-371, N-(3-(2-(4-(2-(2-azidoethoxy)ethoxy)phenylamino)-5-fluoropyrimidin-4-ylamino)phenyl)acrylamide]",10 to 100,< 10,,,,
"C=CC(=O)Nc1cccc(Nc2nc(Nc3ccc(O[C@H](C)CO)c(F)c3)ncc2F)c1 [Compound I-372, (R)—N-(3-(5-fluoro-2-(3-fluoro-4-(1-hydroxypropan-2-yloxy)phenylamino)pyrimidin-4-ylamino)phenyl)acrylamide]",10 to 100,< 10,,,,
"C=CC(=O)Nc1cccc(Nc2nc(Nc3ccc(O[C@@H](C)CO)c(F)c3)ncc2F)c1 [Compound I-373, (S)—N-(3-(5-fluoro-2-(3-fluoro-4-(1-hydroxypropan-2-yloxy)phenylamino)pyrimidin-4-ylamino)phenyl)acrylamide]",10 to 100,< 10,,,,
"C=CC(=O)Nc1cccc(Nc2nc(Nc3ccc(O[C@H](C)COC(=O)[C@@H](N)C(C)C)c(F)c3)ncc2F)c1 [Compound I-374, (S)-((R)-2-(4-(4-(3-acrylamidophenylamino)-5-fluoropyrimidin-2-ylamino)-2-fluorophenoxy)propyl) 2-amino-3-methylbutanoate]",< 10,< 10,,,,
"C=CC(=O)Nc1cccc(Nc2nc(Nc3ccc(OCCN=[N+]=[N-])cc3)ncc2F)c1 [Compound I-376, N-(3-(2-(4-(2-azidoethoxy)phenylamino)-5-fluoropyrimidin-4-ylamino)phenyl)acrylamide]",10 to 100,< 10,,,,
"C=CC(=O)Nc1cccc(Nc2nc(Nc3ccc(O[C@@H](C)COC(=O)[C@@H](N)C(C)C)c(F)c3)ncc2F)c1 [Compound I-377, (S)-((S)-2-(4-(4-(3-acrylamidophenylamino)-5-fluoropyrimidin-2-ylamino)-2-fluorophenoxy)propyl) 2-amino-3-methylbutanoate]",10 to 100,,,,,
COCCOc1ccc(Nc2ncc(F)c(Nc3ccc(CC(=O)C=C4CCC4)cc3)n2)cc1F [Compound I-378],10 to 100,< 10,,,,
"C=CC(=O)Nc1cccc(Nc2nc(Nc3ccc(OCCOCCOCCN=[N+]=[N-])cc3)ncc2F)c1 [Compound I-379, N-(3-(2-(4-(2-(2-(2-azidoethoxy)ethoxy)ethoxy)phenylamino)-5-fluoropyrimidin-4-ylamino)phenyl)acrylamide]",100 to 1000,,,,,
"C=CC(=O)Nc1cccc(Nc2ncc(F)c(Nc3ccc(OCCOC)cc3)n2)c1 [Compound I-381, N-(3-(5-fluoro-4-(4-(2-methoxyethoxy)phenylamino)pyrimidin-2-ylamino)phenyl)acrylamide]",< 10,< 10,,,,
"C=CC(=O)Nc1cccc(Nc2ncc(F)c(Nc3cccc(OCCN4CCOCC4)c3)n2)c1 [Compound I-382, N-(3-(5-fluoro-4-(3-(2-morpholinoethoxy)phenylamino)pyrimidin-2-ylamino)phenyl)acrylamide]",100 to 1000,10 to 100,,,,
